Reference: patent publication US20100029652A1, “Combination Therapy For Treating Hepatitis C Infections” (ACHILLION PHARMACEUTICALS, INC., priority 2007, published 2010)

Columns and labels:
[1] = system: HCV replicon in Huh-9-13 cells; test: Long term combination study: replicon curing assay, colony formation after G418 selection; type: cell-based, hepatitis C virus; details: approximately 5×EC50
Description: In other repetitions of this experiment, treatment time varied from 7 to 10 days. Cells were passaged once every 3 days into new plates at the same density (10^5 cells/plate) and with fresh compounds. No G418 was present during the 9 day treatment. On day 10, the cells were passaged again to new plates at a density of 10^5 cells/plate, respectively, and were treated only with G418 for approximately 3 more weeks. […] During the 2˜3 weeks, the old media were replaced with fresh media twice a week. The colonies were fixed with 10% formaldehyde and stained with 2% crystal violet in 20% ethanol.
In this assay, the number of the cells in which the replicons still remained after the 9-day treatment was quantified based on the number of the colonies formed after G418 selection.

[2] = system: HCV replicon (subtype 1b, Con-1) in Huh-luc/neo cells; test: Short term combination study: HCV replicon luciferase assay in Huh-luc/neo cells, 3-days treatment; type: cell-based, hepatitis C virus; details: for CI (SD) at Replicon inhibition of 50% / CI (SD) at Replicon inhibition of 75% / CI (SD) at Replicon inhibition of 90%: combined with ACH-806, Chou and Talalay; for CI (SD) at Replicon inhibition of 50% / CI (SD) at Replicon inhibition of 75% / CI (SD) at Replicon inhibition of 90% / Overall combinatory antiviral activity / Volume (SD) Antagonism / Volume (SD) Synergy: 3-days treatment; for Overall combinatory antiviral activity / Volume (SD) Antagonism / Volume (SD) Synergy: drug combined with ACH-806; for Volume (SD) Antagonism / Volume (SD) Synergy: Prichard and Shipman model; for combination effect on antiviral activity: in combination with ACH-806, Huh-luc/neo cells treated for 3 days
Description: Huh-luc/neo cells were seeded in 96-well plates at a density of 7000 cells/per well. […] Dose-response curves for the individual compounds and their combinations were all run in quadruplicate.
The experimental data were analyzed using CalcuSyn (Biosoft, Ferguson, Mo.), a computer program based on the method of Chou and Talalay (Chou, T. C. and P. Talalay, Quantitative analysis of dose-effect relationships: the combined effects of multiple drugs or enzyme inhibitors (1984) Adv. Enzyme Regul. 22: 27-55). In this model, the dose-effect curves for each drug or drug combination are converted to median-effect plots with the program. The effect of combination is then compared to that of a single agent. A combination index (CI) value for each experimental combination is calculated on the basis of the following equation:
CI=[(D)1/(Dx)1]+[(D)2/(Dx)2]+[(D)1(D)2/(Dx)1(Dx)2],
By convention a CI of <0.9 is considered synergistic, a CI of ≧0.9 or ≦1.1 is considered additive, and a CI of >1.1 is deemed antagonistic.
The extent of synergy or antagonism was also assessed in a three-dimensional analytical method developed by Prichard and Shipman (Prichard, M. Shipman, K., A three-dimensional model to analyze drug-drug interactions, (1990) Antiviral Res. 14: 181-206). In this model, the theoretical additive effect is calculated from the dose-response curves of individual compounds by the equation Z=X+Y(1−X), where X and Y represent the inhibition produced by drug 1 alone and drug 2 alone, and respectively Z represents the effect produced by the combination of drug 1 and drug 2. The theoretical additive surface is subtracted from the actual experimental surface, resulting in a surface that would appear as a horizontal plane at 0% inhibition if the combination were merely additive. Any peak above this plane would indicate synergy, whereas any depression below it would indicate antagonism. The 95% confidence intervals for the experimental dose-response surface are used to evaluate the data statistically. The volume of the peak or depression is calculated to quantify the overall synergy or antagonism produced. Based on Prichard et al., volumes of synergy greater than 50 μM^2% may be considered significant as may volumes of antagonism of less than −50 μM^2%, wherein the units of the X and Y axis are both μM and the unit of the Z axis is the percentage of inhibition. Results

[3] = single agent by itself, 9-day treatment
[4] = in combination with ACH-806, 9-day treatment

## CCCCCOc1ccc(NC(=S)NC(=O)c2cccnc2)cc1C(F)(F)F [ACH-806]
[1]; [3]
  log reduction of replicon-containing cells: 1 log
  replicon-containing cells cured: about 90%

## CCC[C@H](NC(=O)[C@@H]1[C@H]2CCC[C@H]2CN1C(=O)[C@@H](NC(=O)[C@@H](NC(=O)c1cnccn1)C1CCCCC1)C(C)(C)C)C(=O)C(=O)NC1CC1 [VX-950, telaprevir]
[2]; molar ratio 1:10
  CI (SD) at Replicon inhibition of 50%: 0.86 (0.09)
  CI (SD) at Replicon inhibition of 75%: 0.82 (0.11)
  CI (SD) at Replicon inhibition of 90%: 0.83 (0.13)
[2]; molar ratio 1:20
  CI (SD) at Replicon inhibition of 50%: 0.79 (0.06)
  CI (SD) at Replicon inhibition of 75%: 0.61 (0.12)
  CI (SD) at Replicon inhibition of 90%: 0.50 (0.15)
[2]
  Overall combinatory antiviral activity: Synergy
  Volume (SD) Antagonism: 8 (3) μM^2%
  Volume (SD) Synergy: 119 (4) μM^2%
  combination effect on antiviral activity: synergistic antiviral activity

## CC1(O)C(O)C(CO)OC1n1ccc(N)nc1=O (centres unmarked) [NM-107]
[2]; molar ratio 1:16
  CI (SD) at Replicon inhibition of 50%: 0.69 (0.02)
  CI (SD) at Replicon inhibition of 75%: 0.72 (0.06)
  CI (SD) at Replicon inhibition of 90%: 0.79 (0.12)
[2]; molar ratio 1:32
  CI (SD) at Replicon inhibition of 50%: 0.67 (0.07)
  CI (SD) at Replicon inhibition of 75%: 0.71 (0.05)
  CI (SD) at Replicon inhibition of 90%: 0.83 (0.25)
[2]
  Overall combinatory antiviral activity: Synergy
  Volume (SD) Antagonism: 2 (2) μM^2%
  Volume (SD) Synergy: 116 (77) μM^2%
  combination effect on antiviral activity: synergistic antiviral activity
[1]; [4]
  log reduction of replicon-containing cells: 4 log
  replicon-containing cells cured: ~99.99%
[1]; [3]
  log reduction of replicon-containing cells: 1 log
  replicon-containing cells cured: about 90%
